The record followed here is patent US20200222418A1, “USE OF PHENOTHIAZINE DERIVATIVE IN THE TREATMENT OF INFECTION CAUSED BY BACTERIA CARRYING TYPE IV PILI” (priority 2017, published 2020).

Assay [1] has as its system meningococcal colonization of the human dermal vasculature. Kind of assay: In vivo meningococcal infection of mice engrafted with human skin.
Assay [2] has as its system N. meningitidis 2C4.3 aggregates. It is filed as cell-based, Neisseria meningitidis. Particulars: for effect on dispersion of meningococcal aggregates: 0.5 to 80 μM, 30 min. The protocol:
N. meningitidis 2C4.3 was grown in liquid culture at 10^7 CFU/ml for 2 h to form bacterial aggregates and were treated with increasing concentrations of Trifluoperazine (10 to 40 μM), Gentamicin (150 μg/ml) or cefotaxim (20 μg/ml) for 20 minutes and bacterial aggregates were immediately visualized using a phase-contrast microscope. […] (B) Quantification of the bacterial aggregation was performed using Image J software.
N. meningitidis 2C4.3 wild type strain and the isogenic derivative mutant PilT ([…]PiIT) were grown in liquid culture at 10^7 CFU/ml for 2 h to form bacterial aggregates and then treated with 50 μM Trifluoperazine. Time lapse phase-contrast video microscopy was performed to visualize the effect on bacterial aggregates over time. Images were taken at the indicated time points of the video.
N. meningitidis 2C4.3 was grown in liquid culture at 10^7 CFU/ml for 2 h to form bacterial aggregates and were treated with 30 μM Trifluoperazine for 30 minutes to induce bacterial dispersion or PBS as a control. The medium was replaced to remove the Trifluoperazine and the reformation of bacterial aggregates were visualized overtime using a phase-contrast microscope.
Bacteria were grown in suspension for 2 h then Phenothiazine derivatives were added at the indicated concentrations.
N. meninigitidis 2C4.3 strain was grown in suspension in wells of a 24 well plate, containing 1 ml of DMEM medium supplemented with 10% heat-inactivated fetal calf serum. After 2 h of growth, Trifluoperazine (or control vehicle) was added at various concentrations ranging from 10 to 40 μM for 20 min and the bacterial aggregates were visualized over time using a phase-contrast microscope.
N. meninigitidis 2C4.3 strain was grown in suspension in wells of a 24 well plate, containing 1 ml of DMEM medium supplemented with 10% heat-inactivated fetal calf serum. After 2 h of growth, various concentrations (0.5 to 80 μM) of phenothiazine-derivative compounds or control vehicle (PBS or DMSO) were added to the wells for 30 min and the bacterial aggregates were visualized using a phase-contrast microscope. Were tested phenothiazine-derivative compounds of: • the Piperazine group: Trifluoperazine (Sigma #T8516), Fluphenazine (Sigma #F4765), Prochlorperazine (Sigma #P9178) Perphenazine (Sigma #P6402); • the Piperidine group: Thioridazine (Sigma #T9025) and Mesoridazin (Sigma #M4068); • the Aliphatic group: Chlorpromazine (Sigma #C8138), Promazine (Sigma #P6656), Triflupromazine (Sigma #1686003) and levomepromazine (Sigma #L0500000).

The subject of assay [3] is Nm2C4.3 microcolonies on HBMEC, human bone marrow endothelial cell line. Kind of assay: Dispersion of meningococcal microcolonies on HBMEC (vascular colonisation index). The class given is cell-based, Neisseria meningitidis. The following applies: 30 min, Trifluoperazine 10-40 μM, Gentamicin 150 μg/ml, Cefotaxim 20 μg/ml. The protocol:
Human […] microvascular endothelial cells (HBMEC) were infected with Nm2C4.3 for 1 h 30, treated with Trifluoperazine (10-40 μM) for 30 minutes, before fixation and immunofluorescence analysis using anti-Nm2C4.3 antibody and Alexa Fluor 633 Phalloidin. (A) Representative fluorescence microscopy showing bacterial colony (white dots) formed at the surface of the endothelial cells. (B) Quantification of the bacterial colonization was performed using Image J software.
HBMEC, a human endothelial cell line isolated from […] capillaries (Schweitzer et al., 1997) were grown in Dulbecco's Modified Eagle Medium (DMEM) 4.5 g/L-Glutamax (ThermoFischer) 10% FBS. Cells were grown on Thermanox coverslips coated with gelatin 2% (BD Difco #214340) for 2 days to reach confluency. Cells were then infected with a suspension of Nm2C4.3 (˜10^7 CFU/ml) in DMEM/FBS during 30 minutes to allow bacterial adhesion. Cells were then washed three times with medium to remove non-adherent bacteria and infection was pursued for 1 h 30: adherent bacteria grew at the endothelial cell surface and formed micro-colonies. Trifluoperazine was then added to obtain final concentrations of 10, 20, 30 and 40 μM. After incubation for 30 minutes, cells were washed and fixed in 4% Paraformaldehyde for 10 min, washed three times with PBS, and permeabilized with 0.1% Triton X-100 in PBS for 10 min. Cells were blocked for 30 min with 3% BSA in PBS and were incubated for 2 h with the primary antibodies (Rabbit polyclonal anti-Nm2C4.3 strain, kindly provided by Dr X. Nassif, INEM, Paris). After three washes with PBS, cells were incubated for 1 h with […] anti-rabbit IgG (Jackson ImmunoResearch Laboratories), together with Alexa Fluor 633 Phalloidin (Thermofischer) and DAPI ([…], Sigma Aldrich) to stain Actin and nuclei, respectively. Labelled preparations were mounted in Glycergel media (DAKO) and image acquisitions were performed with a DM16000 microscope (Leica, X40). Quantification was done with ImageJ software (NIH). […]

With `CO/N=C(\C(=O)N[C@@H]1C(=O)N2C(C(=O)O)=C(COC(C)=O)CS[C@H]12)c1csc(N)n1` [Cefotaxim], in assay [1], the “increase of inflammatory response” value is reported as 2 fold. The “dispersion of bacterial aggregates formed in suspension” value in assay [2] (aggregates pre-formed 2 h, 20 min, Trifluoperazine 10-40 μM, Gentamicin 150 μg/ml, Cefotaxim 20 μg/ml) is listed as “did not significantly induce the dispersion”. Moreover, the “dispersion of compact meningococcal microcolonies established at the endothelial cell surface” value in assay [3] was “poorly induced the dispersion”.
Regarding `CN(C)CCCN1c2ccccc2Sc2ccc(Cl)cc21` [Chlorpromazine], in assay [2], the “effect on dispersion of meningococcal aggregates” value is reported as “no effects”.
The same measure, in the same setting: the value for `COc1ccc2c(c1)N(C[C@H](C)CN(C)C)c1ccccc1S2` [Levomepromazine] was “no effects”.
Same read-out and setting: the value for `CN(C)CCCN1c2ccccc2Sc2ccccc21` [Promazine] was “inhibited bacterial aggregation with better efficacy than Trifluoperazine”.
On the same count and under the same terms, with `CN(C)CCCN1c2ccccc2Sc2ccc(C(F)(F)F)cc21` [Triflupromazine] the entry was “no effects”.
